# Laboratory results from patent US20070003608A1, “Compounds, compositions and methods for the treatment of viral infections and other medical disorders” (priority 2005, published 2007).
# Read-outs that look alike come from different tables or passages of the source.
# What was measured:
# [1] = system: Human Cytomegalovirus (HCMV); assay: HCMV antiviral assay, HCMV DNA quantified by DNA hybridization in MRC-5 cells; assay type: cell-based
# [2] = system: human lung fibroblast cells (MRC-5); assay: Cytotoxicity in vitro in MRC-5 human lung fibroblast cells, visual estimate of 50% reduction in cell number; conditions: MRC-5 cells, 5 days; Table 2
# [3] = system: HSV-1; conditions: Human HSV replication in MRC-5 human lung fibroblasts, DNA reduction, about 24 h; average of two experiments (HDP-CDV single determination in duplicate); cited from earlier work
# [4] = system: human lung fibroblast cells (MRC-5); conditions: Table 7; cited from earlier work
# [5] = Cytotoxicity in vitro in MRC-5 human lung fibroblast cells, visual estimate of 50% reduction in cell number; conditions: human, MRC-5 human lung fibroblast cells
# [6] = system: HIV-1; conditions: cited from earlier work
# [7] = system: HT4-6C Cells; conditions: Table 6; cited from earlier work
# [8] = system: HIV-1; assay: HIV-1 plaque reduction assay in HT4-6C cells; assay type: cell-based; conditions: HIV-1 plaque reduction EC50 compared with adefovir
# [9] = Quantitative whole body autoradiograph after oral [2-14C] HDP-cidofovir; conditions: mouse, 4 hours after a 5 mg/kg oral dose of [2-14C] HDP-cidofovir
# [10] = system: Vaccinia; conditions: Vero cells, 1000 pfu/well, neutral red; average of 3 determinations; cited from earlier work
# [11] = system: Variola Minor Garcia; conditions: cited from earlier work
# [12] = system: Cowpox; conditions: cited from earlier work
# [13] = system: Variola Major, Yamada; conditions: cited from earlier work
# [14] = system: Variola Major, Bangladesh; conditions: cited from earlier work
# [15] = system: Vero cells; conditions: 50% cytotoxic concentration in Vero cells; cited from earlier work
# [16] = Human CMV replication in MRC-5 human lung fibroblasts, DNA reduction, average of 3 to 6 determinations (ADV single replication in duplicate), read-out: EC50
structure (smiles),measurement,setting,value
"CCCCCCCCCCCCCCCCCCOCCOP(=O)(O)COC(CO)Cn1ccc(N)nc1=O (stereo not drawn) [1-O-octadecylpropanediol-2-CDV, 1-O-octadecylethanediol-2-cidofovir]",EC50,[1]; [16],40 nM
"CCCCCCCCCCCCCCCCCCOCCOP1(=O)COC(Cn2ccc(N)nc2=O)CO1 (stereo not drawn) [1-O-octadecylpropanediol-2-cCDV, 1-O-octadecylethanediol-2-cyclic cidofovir]",EC50,[1]; [16],55000 nM
"CCCCCCCCCCCCCCCCCCOCCCOP(=O)(O)COC(CO)Cn1ccc(N)nc1=O (stereo not drawn) [1-O-octadecylpropanediol-3-CDV, 1-O-octadecylpropanediol-3-cidofovir]",CC50,[2],32 µM
same,EC50,[3],0.003 µM
same,EC50,[1]; [16],0.03 nM
same,CC50,[4],32 µM
"Nc1ncnc2c1ncn2CCOCP(=O)(O)O [Adefovir, adefovir, reference compound]",CC50 at 5 days,[5],> 1000 µM
same,EC50,"[6]; HIV replication in HT4-6C cells, plaque reduction, average of 4 experiments, Table 6, read-out: EC50",8.2 µM
same,EC50,"[6]; HIV-1 LAI infected HT4-6C cells, 3 days, preliminary experiments, Table 5, read-out: EC50, μM, in HIV-1 plaque reduction assay",16 µM
same,EC50,"[1]; Human betaherpesvirus 5, MRC5",210 nM
same,EC50,"[1]; Human betaherpesvirus 5, MRC5, 120 h, MRC-5 cells, 5 days, DNA hybridization, preliminary experiments, second TABLE 1, read-out: HCMV EC50",55000 nM
same,CC50,[7],> 1000 µM
"CCCCCCCCCCCCCCCCOCCCOP(=O)(O)COCCn1cnc2c(N)ncnc21 [HDP-ADV, 1-O-hexadecylpropanediol-3-adefovir]",logs more active than adefovir itself,[8],more than 5 logs
"CCCCCCCCCCCCCCCCOCCCOP(=O)(O)COC(CO)Cn1ccc(N)nc1=O (stereo not drawn) [HDP-CDV, hexadecyloxypropyl-cidofovir]",tissue distribution of drug,[9],"distributed primarily in the GI tract as well as organs including the lung, heart, liver, and kidney"
same,EC50,[10],< 0.03 µM
same,EC50,[11],0.0006 µM
same,EC50,[12],< 0.03 µM
same,EC50,[13],0.0015 µM
same,EC50,[14],0.0015 µM
same,CC50 at 5 days,[5],10 µM
same,CC50,[15],> 0.1 µM
same,EC50,"[1]; Human betaherpesvirus 5, MRC5, Human CMV replication in MRC-5 human lung fibroblasts, DNA reduction, average of 3 to 6 determinations (ADV single replication in duplicate), read-out: EC50",0.002 nM
"CCCCCCCCCCCCCCCCOP1(=O)CO[C@@H](Cn2ccc(N)nc2=O)CO1 (stereo partly drawn) [Hexadecyl-cCDV, hexadecyl cyclic cidofovir]",CC50,[2],6.5 µM
same,EC50,[1]; [16],100 nM
